Results from patent US9096591B2, “Tetracyclic compounds” (Medivation Technologies, Inc., priority 2007, dated 2015).
Where two headings read alike, the source gives them in different places.

How the values were obtained:
[1] = target: T1, human recombinant serotonin (5-Hydroxytryptamine) 5-HT6 receptor (Homo sapiens, UniProt P50406); test: Serotonin 5-HT6 radioligand binding ([3H]LSD); set-up: Inhibition of ligand binding, Ser. 5-HT6: concentration or dose not given beside the values; conditions: percent inhibition of specific binding
T1 construct: expressed in transfected cells; host or cells: human HeLa cells
Description: Receptor proteins were filtered and washed, the filters were then counted to determine [3H]LSD specifically bound. […] Biochemical assay results are presented as the percent inhibition of specific binding in Table 6.

[2] = target: T2, human recombinant adrenergic α2B receptor (Homo sapiens, UniProt P18089); test: Adrenergic α2B radioligand binding ([3H]Rauwolscine); set-up: Inhibition of ligand binding, Adren. alpha2B: concentration or dose not given beside the values; conditions: percent inhibition of specific binding
T2 construct: expressed in transfected cells; host or cells: CHO-K1 cells
T2 sequence (P18089 1-450): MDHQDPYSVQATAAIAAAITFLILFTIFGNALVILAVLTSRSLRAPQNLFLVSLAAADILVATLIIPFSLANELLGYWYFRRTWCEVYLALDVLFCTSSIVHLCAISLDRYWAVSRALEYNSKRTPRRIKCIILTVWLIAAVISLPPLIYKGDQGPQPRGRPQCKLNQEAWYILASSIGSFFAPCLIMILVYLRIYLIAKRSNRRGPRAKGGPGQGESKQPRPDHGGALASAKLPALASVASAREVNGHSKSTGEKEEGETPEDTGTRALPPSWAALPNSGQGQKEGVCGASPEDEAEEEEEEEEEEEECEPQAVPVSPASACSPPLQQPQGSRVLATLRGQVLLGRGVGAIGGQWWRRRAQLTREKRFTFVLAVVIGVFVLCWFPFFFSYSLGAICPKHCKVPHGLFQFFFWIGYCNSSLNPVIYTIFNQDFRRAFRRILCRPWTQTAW
Outline: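 Membranes from CHO-K1 cells expressing the receptor, in 50 mM Tris-HCl pH 7.4 with 12.5 mM MgCl2, 1 mM EDTA, 0.2% BSA, incubated with compounds and 2.5 nM [3H]Rauwolscine for 60 minutes at 25 °C.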

[3] = target: T3, human recombinant serotonin (5-Hydroxytryptamine) 5-HT2A receptor (Homo sapiens, UniProt P28223); test: Serotonin 5-HT2A radioligand binding ([3H]Ketanserin); conditions: for Inhibition of ligand binding, Ser. 5-HT2A: percent inhibition of specific binding
T3 construct: expressed in transfected cells; host or cells: CHO-K1 cells
Procedure: (§1) Compounds of the invention were incubated with 0.5 nM [^3H]Ketanserin for 60 minutes at 25° C. Non-specific binding was estimated in the presence of 1 μM Mianserin. Receptor proteins were filtered and washed, the filters were then counted to determine [^3H]Ketanserin specifically bound. […] Biochemical assay results are presented as the percent inhibition of specific binding in Table 6.

[4] = target: T4, human recombinant adrenergic α1D receptor (Homo sapiens, UniProt P25100); test: Adrenergic α1D radioligand binding ([3H]Prozosin); set-up: Inhibition of ligand binding, Adren. alpha1D: concentration or dose not given beside the values; conditions: percent inhibition of specific binding
T4 construct: expressed in transfected cells; host or cells: HEK-293 cells
T4 sequence (P25100 1-572): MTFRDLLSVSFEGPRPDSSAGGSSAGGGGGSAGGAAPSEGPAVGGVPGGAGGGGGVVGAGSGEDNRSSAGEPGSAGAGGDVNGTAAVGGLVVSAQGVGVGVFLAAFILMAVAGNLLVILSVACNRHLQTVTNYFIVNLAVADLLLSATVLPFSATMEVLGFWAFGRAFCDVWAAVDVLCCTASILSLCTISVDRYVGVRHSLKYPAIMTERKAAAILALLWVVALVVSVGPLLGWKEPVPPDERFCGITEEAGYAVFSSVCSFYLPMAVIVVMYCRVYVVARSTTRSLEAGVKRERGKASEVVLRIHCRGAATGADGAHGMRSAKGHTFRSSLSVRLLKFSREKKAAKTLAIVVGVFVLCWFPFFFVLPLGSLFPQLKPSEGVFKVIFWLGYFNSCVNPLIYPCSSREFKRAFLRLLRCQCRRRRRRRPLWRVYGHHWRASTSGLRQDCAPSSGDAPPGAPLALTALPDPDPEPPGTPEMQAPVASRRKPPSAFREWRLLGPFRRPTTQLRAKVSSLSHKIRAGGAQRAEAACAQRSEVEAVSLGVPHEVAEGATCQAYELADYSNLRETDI
Procedure: as §1, with “of” for “of the”, “0.6” for “0.5”, “[^3H]Prozosin” for “[^3H]Ketanserin”, “10” for “1”, “phentolamine.” for “Mianserin.”

[5] = target: T5, human recombinant histamine H1 receptor (Homo sapiens, UniProt P35367); test: Histamine H1 radioligand binding ([3H]Pyrilamine); conditions: for inhibition at 0.1 µM: 0.1 μM compound; for inhibition at 0.01 µM: 10 nM (0.01 μM) compound
T5 construct: expressed in transfected cells; host or cells: CHO cells
Outline: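 Receptor expressed in CHO cells, assayed in 50 mM Tris-HCl pH 7.4 with 2 mM MgCl2, 100 mM NaCl, 250 mM sucrose. Compounds tested at 1 μM in 1% DMSO; non-specific binding set with 1 μM pyrilamine. Filter-bound radioactivity counted; values are percent inhibition of specific binding.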

[6] = target: T6, human recombinant dopamine D2L receptor (Homo sapiens, UniProt P14416); test: Dopamine D2L radioligand binding ([3H]Spiperone); conditions: percent inhibition of specific binding
T6 construct: expressed in transfected cells; host or cells: CHO cells
Procedure: Non-specific binding was estimated in the presence of 10 μM Haloperidol. Receptor proteins were filtered and washed, the filters were then counted to determine [^3H]Spiperone specifically bound. […] Biochemical assay results are presented as the percent inhibition of specific binding in Table 6.

[7] = 1 μM compound, […] [3H]Pyrilamine, read-out: Histamine Binding H1, percent inhibition of specific binding
[8] = percent inhibition of specific binding, screened at 1 μM, read-out: Inhibition of ligand binding, Hist. H1
[9] = […] [3H]Pyrilamine, read-out: Histamine Binding H1, percent inhibition of specific binding

T6 sequence (P14416 whole entry): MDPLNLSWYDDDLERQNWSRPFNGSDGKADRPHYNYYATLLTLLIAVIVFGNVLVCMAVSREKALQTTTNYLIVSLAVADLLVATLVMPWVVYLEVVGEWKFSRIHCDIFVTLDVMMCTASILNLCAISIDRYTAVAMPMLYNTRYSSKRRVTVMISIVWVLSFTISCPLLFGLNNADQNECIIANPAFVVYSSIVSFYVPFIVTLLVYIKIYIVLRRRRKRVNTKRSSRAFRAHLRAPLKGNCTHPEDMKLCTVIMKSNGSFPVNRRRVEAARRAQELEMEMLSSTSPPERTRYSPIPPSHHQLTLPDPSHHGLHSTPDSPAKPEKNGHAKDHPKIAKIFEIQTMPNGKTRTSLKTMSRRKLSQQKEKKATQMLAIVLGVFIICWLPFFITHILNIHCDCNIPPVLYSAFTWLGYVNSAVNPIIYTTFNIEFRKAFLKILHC
T3 sequence (P28223 whole entry): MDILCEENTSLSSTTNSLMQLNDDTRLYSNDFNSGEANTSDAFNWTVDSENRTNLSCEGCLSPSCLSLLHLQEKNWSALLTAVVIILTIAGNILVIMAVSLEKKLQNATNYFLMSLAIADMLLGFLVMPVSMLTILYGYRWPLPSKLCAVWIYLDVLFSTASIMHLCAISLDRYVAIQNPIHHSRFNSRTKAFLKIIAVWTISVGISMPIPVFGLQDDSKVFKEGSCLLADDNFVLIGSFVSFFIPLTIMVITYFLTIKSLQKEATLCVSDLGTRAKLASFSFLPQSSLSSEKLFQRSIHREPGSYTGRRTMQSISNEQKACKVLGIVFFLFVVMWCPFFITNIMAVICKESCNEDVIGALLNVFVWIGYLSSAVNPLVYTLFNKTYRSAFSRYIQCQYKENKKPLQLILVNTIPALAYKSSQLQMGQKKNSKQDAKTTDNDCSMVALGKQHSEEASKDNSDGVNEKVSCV
T1 sequence (P50406 whole entry): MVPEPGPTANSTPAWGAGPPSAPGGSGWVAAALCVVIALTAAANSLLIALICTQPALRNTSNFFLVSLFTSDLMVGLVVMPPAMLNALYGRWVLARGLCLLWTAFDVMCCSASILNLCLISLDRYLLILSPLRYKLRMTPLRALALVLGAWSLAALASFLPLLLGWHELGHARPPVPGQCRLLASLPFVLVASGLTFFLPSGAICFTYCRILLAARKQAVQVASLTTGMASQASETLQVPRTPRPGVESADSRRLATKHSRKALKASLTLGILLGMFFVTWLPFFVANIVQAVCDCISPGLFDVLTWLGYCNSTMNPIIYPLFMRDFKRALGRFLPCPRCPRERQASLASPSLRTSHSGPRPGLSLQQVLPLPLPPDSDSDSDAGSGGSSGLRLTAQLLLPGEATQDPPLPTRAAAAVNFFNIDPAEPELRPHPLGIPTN
T5 sequence (P35367 whole entry): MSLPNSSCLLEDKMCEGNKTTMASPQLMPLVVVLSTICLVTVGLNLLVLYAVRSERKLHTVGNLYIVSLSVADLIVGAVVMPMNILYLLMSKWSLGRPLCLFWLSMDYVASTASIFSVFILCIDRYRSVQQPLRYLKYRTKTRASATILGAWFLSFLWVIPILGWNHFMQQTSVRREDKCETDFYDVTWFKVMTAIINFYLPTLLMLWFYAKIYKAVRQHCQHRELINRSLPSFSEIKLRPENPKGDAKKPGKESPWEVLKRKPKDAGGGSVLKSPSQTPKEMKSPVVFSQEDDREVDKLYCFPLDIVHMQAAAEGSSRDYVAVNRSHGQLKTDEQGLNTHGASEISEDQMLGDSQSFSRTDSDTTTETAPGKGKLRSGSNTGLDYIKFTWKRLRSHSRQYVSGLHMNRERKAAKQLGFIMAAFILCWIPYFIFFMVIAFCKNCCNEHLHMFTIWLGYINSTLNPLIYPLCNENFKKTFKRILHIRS

| Structure (SMILES) | Inhibition of ligand binding, Ser. 5-HT6 [1] | Inhibition of ligand binding, Adren. alpha2B [2] | Inhibition of ligand binding, Ser. 5-HT2A [3] | Inhibition of ligand binding, Adren. alpha1D [4] | inhibition at 1 µM [5, 7] | inhibition at 1 µM [5, 8] | Inhibition of ligand binding, Dop. D2L [6] | inhibition at 0.03 µM ([5]; 0.03 μM compound, […] [3H]Pyrilamine, read-out: Histamine Binding H1, percent inhibition of specific binding) | inhibition at 0.1 µM [5, 9] | inhibition at 0.01 µM [5, 9] | inhibition at 0.001 µM ([3]; read-out: Inhibition of ligand binding, Ser. 5-HT2A) |
| --- | --- | --- | --- | --- | --- | --- | --- | --- | --- | --- | --- |
| CCOC(=O)N1CCc2c(c3cc(Br)ccc3n2CCc2ccc(C)nc2)C1 [Compound 18, ethyl 8-bromo-3,4-dihydro-5-(2-(6-methylpyridin-3-yl)ethyl)-1H-pyrido[4,3-b]indole-2(5H)-carboxylate] | 6% | −8% | 5% | −10% | -14% | -14% | −7% |  |  |  |  |
| CCOC(=O)N1CCc2c(c3cc(-c4cccnc4)ccc3n2CCc2ccc(C)nc2)C1 [Compound 19, ethyl 3,4-dihydro-5-(2-(6-methylpyridin-3-yl)ethyl)-8-(pyridin-3-yl)-1H-pyrido[4,3-b]indole-2(5H)-carboxylate] | −5% | −8% | 2% | −6% | -3% | -3% | −5% |  |  |  |  |
| CCOC(=O)N1CCc2c(c3cc(C)ccc3n2CCc2ccccc2)C1 [Compound 24, ethyl 3,4-dihydro-8-methyl-5-phenethyl-1H-pyrido[4,3-b]indole-2(5H)-carboxylate] | −4% | −1% | −2% | 6% | -4% | -4% | 3% |  |  |  |  |
| Cc1ccc(CCn2c3c(c4cc(C)ccc42)CN(C)CC3)cc1 [Compound 25, 2,3,4,5-tetrahydro-2,8-dimethyl-5-(4-methylphenethyl)-1H-pyrido[4,3-b]indole] | 103% | 108% | 93% |  | 97% | 97% | 94% | 71% | 89% |  |  |
| CN1CCc2c(c3cc(Cl)ccc3n2CCc2ccccn2)C1 [Compound 30, 8-chloro-2,3,4,5-tetrahydro-2-methyl-5-(2-(pyridin-2-yl)ethyl)-1H-pyrido[4,3-b]indole] | 90% | 102% | 91% | 68% | 80% | 80% | 29% |  |  |  |  |
| Cc1ccc2c(c1)c1c(n2CCc2ccc(Cl)cc2)CCN(C)C1 [Compound 32, 5-(4-chlorophenethyl)-2,3,4,5-tetrahydro-2,8-dimethyl-1H-pyrido[4,3-b]indole] | 101% | 110% | 96% | 94% | 101% | 101% | 82% |  | 87% | 52% |  |
| Cc1ccc2c(c1)c1c(n2CCc2ccc(F)cc2)CCN(C)C1 [Compound 33, 5-(4-fluorophenethyl)-2,3,4,5-tetrahydro-2,8-dimethyl-1H-pyrido[4,3-b]indole] | 100% | 100% | 97% | 88% | 98% | 98% | 88% |  | 89% | 46% |  |
| CN1CCc2c(c3cc(Cl)ccc3n2CCc2ccccc2)C1 [Compound 36, 8-chloro-2,3,4,5-tetrahydro-2-methyl-5-phenethyl-1H-pyrido[4,3-b]indole] | 104% | 104% | 98% | 87% | 99% | 99% | 92% |  | 91% | 48% |  |
| Cc1ccc2c(c1)c1c(n2CCC2CCCCC2)CCN(C)C1 [Compound 163, 5-(2-cyclohexylethyl)-2,3,4,5-tetrahydro-2,8-dimethyl-1H-pyrido[4,3-b]indole] | 99% | 104% | 92% | 49% | 103% | 103% | 36% |  | 92% | 59% |  |
| COc1ccc(CCn2c3c(c4cc(C)ccc42)CN(C)CC3)cc1 [Compound 247] | 107% | 103% |  | 95% | 100% | 100% | 87% |  |  |  | 22% |
| Cc1ccc2c(c1)c1c(n2CCc2ccc(CO)nc2)CCN(C)C1 [Compound 267] | 69% | 100% | 73% | 92% |  | 96% | 21% |  |  |  |  |
| CCOC(=O)c1ccc(CCn2c3c(c4cc(C)ccc42)CN(C)CC3)cn1 [Compound 275, ethyl 5-(2-(1,2,3,4-tetrahydro-2,8-dimethylpyrido[4,3-b]indol-5-yl)ethyl)pyridine-2-carboxylate] | 56% | 92% | 39% | 87% |  | 92% | 4% |  |  |  |  |
| CN1CCc2c(c3cc(Cl)ccc3n2CC(=O)N2CCS(=O)(=O)CC2)C1 [Compound 295] | −1% | 18% | 0% | 4% |  | -3% | −7% |  |  |  |  |
